# Where two headings read alike, the source gives them in different places.
# Assays:
# [1] = target: T1, alpha 2B receptor (Homo sapiens, UniProt P18089); assay: RSAT (Receptor Selection and Amplification Technology) assay, alpha 2B; type: cell-based; details: for RSAT (rel eff) Alpha 2B: intrinsic activity: ratio of maximal effect to that of standard full agonist brimonidine
# T1 construct: expressed in transfected cells; host or cells: NIH-3T3 cells
# T1 sequence (P18089 1-450): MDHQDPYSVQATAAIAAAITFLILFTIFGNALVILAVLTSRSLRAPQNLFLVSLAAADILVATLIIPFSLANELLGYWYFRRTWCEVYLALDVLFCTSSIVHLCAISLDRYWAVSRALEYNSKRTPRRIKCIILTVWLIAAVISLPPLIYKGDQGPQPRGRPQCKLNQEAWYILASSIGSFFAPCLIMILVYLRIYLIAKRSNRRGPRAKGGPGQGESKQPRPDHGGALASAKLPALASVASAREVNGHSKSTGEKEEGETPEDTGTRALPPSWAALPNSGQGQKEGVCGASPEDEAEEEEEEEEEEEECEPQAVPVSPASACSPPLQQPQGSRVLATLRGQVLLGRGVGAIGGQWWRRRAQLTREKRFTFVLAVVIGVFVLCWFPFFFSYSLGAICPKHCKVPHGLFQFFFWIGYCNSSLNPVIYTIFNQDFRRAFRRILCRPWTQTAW
# Description: (§1) 76, pp. 308-311 (incorporated herein by reference) and is also described below.
# (§2) The RSAT assay measures a receptor-mediated loss of contact inhibition that results in selective proliferation of receptor-containing cells in a mixed population of confluent cells. The increase in cell number is assessed with an appropriate transfected marker gene such as β-galactosidase, the activity of which can be easily measured in a 96-well format. Receptors that activate the G protein, Gq, elicit this response. Alpha 2 receptors, which normally couple to Gi, activate the RSAT response when coexpressed with a hybrid Gq protein that has a Gi receptor recognition domain, called Gq/i5.
# (§3) NIH-3T3 cells are plated at a density of 2×10^6 cells in 15 cm dishes and maintained in Dulbecco's modified Eagle's medium supplemented with 10% calf serum. One day later, cells are cotransfected by calcium phosphate precipitation with mammalian expression plasmids encoding p-SV-β-galactosidase (5-10 μg), receptor (1-2 μg) and G protein (1-2 μg). 40 μg salmon sperm DNA may also be included in the transfection mixture. Fresh media is added on the following day and 1-2 days later, cells are harvested and frozen in 50 assay aliquots. Cells are thawed and 100 μl added to 100 μL aliquots of various concentrations of drugs in triplicate in 96-well dishes. Incubations continue 72-96 hr at 37° C. After washing with phosphate-buffered saline, β-galactosidase enzyme activity is determined by adding 200 μL of the chromogenic substrate (consisting of 3.5 mM o-nitrophenyl-β-D-galactopyranoside and 0.5% nonidet P-40 in phosphate buffered saline), incubating overnight at 30° C. and measuring optical density at 420 nm. The absorbance is a measure of enzyme activity, which depends on cell number and reflects a receptor-mediated cell proliferation. The efficacy or intrinsic activity is calculated as a ratio of the maximal effect of the drug to the maximal effect of a standard full agonist for each receptor subtype. Brimonidine, the chemical structure of which is shown below, is used as the standard agonist for the alpha 2B and alpha 2C receptors.
# [2] = target: T2, alpha 2C receptor (Homo sapiens, UniProt P18825); assay: RSAT (Receptor Selection and Amplification Technology) assay, alpha 2C; type: cell-based; details: for RSAT (rel eff) Alpha 2C: intrinsic activity: ratio of maximal effect to that of standard full agonist brimonidine
# T2 construct: expressed in transfected cells; host or cells: NIH-3T3 cells
# T2 sequence (P18825 1-462): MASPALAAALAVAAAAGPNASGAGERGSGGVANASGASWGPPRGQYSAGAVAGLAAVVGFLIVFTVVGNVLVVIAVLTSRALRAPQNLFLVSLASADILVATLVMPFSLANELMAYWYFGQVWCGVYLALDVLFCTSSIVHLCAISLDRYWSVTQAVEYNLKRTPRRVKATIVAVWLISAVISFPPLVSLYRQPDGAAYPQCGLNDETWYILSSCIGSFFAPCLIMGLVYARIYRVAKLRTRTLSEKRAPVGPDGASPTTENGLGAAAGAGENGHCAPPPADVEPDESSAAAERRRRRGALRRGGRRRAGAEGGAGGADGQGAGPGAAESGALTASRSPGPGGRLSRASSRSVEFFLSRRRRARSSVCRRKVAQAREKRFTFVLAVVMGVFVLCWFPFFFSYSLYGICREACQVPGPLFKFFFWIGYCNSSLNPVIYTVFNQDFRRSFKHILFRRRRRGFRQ
# Description: as §1, §2, §3
Compound,EC50 [1],RSAT (rel eff) Alpha 2B [1],EC50 [2],RSAT (rel eff) Alpha 2C [2],"EC50 ([1]; NIH-3T3 cells cotransfected with receptor, Gq/i5 and beta-galactosidase, read-out: RSAT EC50 (nM) Alpha 2B)","EC50 ([2]; NIH-3T3 cells cotransfected with receptor, Gq/i5 and beta-galactosidase, nd = not determinable (>10,000), read-out: RSAT EC50 (nM) Alpha 2C)"
"C[C@@H](NC1=NCCN1)c1cccc(Cl)c1Cl [Compound 1, N-[1-(2,3-dichloro-phenyl)-ethyl]-4,5-dihydro-1H-imidazol-2-amine]",31 nM,0.68,41 nM,0.35,,
"C[C@H](NC1=NCCN1)c1cccc(Cl)c1Cl [Compound 2, (+)-(S)—N-[1-(2,3-dichloro-phenyl)-ethyl]-4,5-dihydro-1H-imidazol-2-amine]",19 nM,0.63,63 nM,0.33,,
"CCC(NC1=NCCN1)c1cccc(Cl)c1Cl (stereo not drawn) [Compound 3, N-[1-(2,3-dichloro-phenyl)-propyl]-4,5-dihydro-1H-imidazol-2-amine]",38 nM,0.82,46 nM,0.30,,
"Clc1cccc(C(CCc2ccccc2)NC2=NCCN2)c1Cl (stereo not drawn) [Compound 4, N-[1-(2,3-dichloro-phenyl)-3-phenyl-propyl]-4,5-dihydro-1H-imidazol-2-amine]",,0.77,,,11 nM,> 10000 nM

# — patent publication US8486985B2, “Selective subtype alpha 2 adrenergic agents and methods for use thereof” (Allergan, Inc., priority 2008, dated 2013)
